Test results as given in patent publication US6624159B2, “Heterocycle carboxamides as antiviral agents” (Pharmacia & Upjohn Company, priority 2000, dated 2003).
Structures can show the parent of a compound that is named as a salt.

What was measured:
HCMV polymerase = molecular target: T1, HCMV polymerase (Human cytomegalovirus, UniProt P08546); assay: HCMV polymerase scintillation proximity assay (modified version); type: biochemical; details: for IC50: modified SPA assay, compounds diluted in 100% DMSO, 4.5 mM DTT
T1 construct: made in house; host or cells: recombinant baculovirus-infected SF-9 cells
T1 sequence (P08546 whole entry): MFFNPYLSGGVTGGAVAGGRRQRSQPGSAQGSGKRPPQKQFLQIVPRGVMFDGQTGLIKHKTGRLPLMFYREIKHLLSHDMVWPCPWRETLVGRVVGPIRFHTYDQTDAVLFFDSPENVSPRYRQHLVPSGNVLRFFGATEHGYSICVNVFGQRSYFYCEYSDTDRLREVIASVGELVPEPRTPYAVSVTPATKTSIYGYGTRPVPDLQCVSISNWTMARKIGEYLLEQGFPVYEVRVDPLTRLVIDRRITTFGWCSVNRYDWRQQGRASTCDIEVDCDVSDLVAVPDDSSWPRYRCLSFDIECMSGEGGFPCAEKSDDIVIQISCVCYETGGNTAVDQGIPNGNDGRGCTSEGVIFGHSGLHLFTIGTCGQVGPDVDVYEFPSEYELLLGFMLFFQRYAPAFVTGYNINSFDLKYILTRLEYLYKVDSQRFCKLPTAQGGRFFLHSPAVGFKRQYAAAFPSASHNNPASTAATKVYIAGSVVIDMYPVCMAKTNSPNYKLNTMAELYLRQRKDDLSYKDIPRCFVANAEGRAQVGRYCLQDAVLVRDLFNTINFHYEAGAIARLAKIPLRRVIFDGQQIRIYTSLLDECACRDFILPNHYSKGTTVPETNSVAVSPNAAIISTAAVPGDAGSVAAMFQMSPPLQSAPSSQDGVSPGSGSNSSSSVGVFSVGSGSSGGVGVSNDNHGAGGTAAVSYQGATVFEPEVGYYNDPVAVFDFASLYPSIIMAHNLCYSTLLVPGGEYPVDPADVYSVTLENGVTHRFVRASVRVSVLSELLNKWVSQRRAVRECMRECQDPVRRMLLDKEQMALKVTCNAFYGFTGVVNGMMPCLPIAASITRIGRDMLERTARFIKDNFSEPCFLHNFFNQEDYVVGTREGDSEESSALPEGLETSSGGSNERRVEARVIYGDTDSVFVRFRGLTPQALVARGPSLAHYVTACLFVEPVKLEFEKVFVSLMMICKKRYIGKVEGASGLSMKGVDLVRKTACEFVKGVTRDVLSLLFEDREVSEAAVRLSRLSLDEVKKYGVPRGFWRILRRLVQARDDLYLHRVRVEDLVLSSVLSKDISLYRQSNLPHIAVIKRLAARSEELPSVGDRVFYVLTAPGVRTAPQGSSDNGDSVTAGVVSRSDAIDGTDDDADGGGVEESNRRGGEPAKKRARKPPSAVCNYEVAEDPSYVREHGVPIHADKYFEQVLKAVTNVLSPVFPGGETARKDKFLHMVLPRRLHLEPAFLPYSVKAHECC
Description: (§1) The HCMV polymerase assay is performed using a scintillation proximity assay (SPA) as described in several references, such as N. D. Cook, et al., Pharmaceutical Manufacturing International, pages 49-53 (1992); K. Takeuchi, Laboratory Practice, September issue (1992); U.S. Pat. No. 4,568,649 (1986); which are incorporated by reference herein. Reactions are performed in 96-well plates. The assay is conducted in 100 μl volume with 5.4 mM HEPES (pH 7.5), 11.7 mM KCl, 4.5 mM MgCl2, 0.36 mg/ml BSA, and 90 nM ^3H-dTTP. Assays are run with and without CHAPS, (3-[(3-Cholamidopropyl)-dimethylammonio]-1-propane-sulfonate) at a final concentration of 2 mM. HCMV polymerase is diluted in enzyme dilution buffer containing 50% glycerol, 250 mM NaCl, 10 mM HEPES (pH 7.5), 100 μg/ml BSA, and 0.01% sodium azide. The HCMV polymerase, which is expressed in recombinant baculovirus-infected SF-9 cells and purified according to literature procedures, is added at 10% (or 10 μl) of the final reaction volume, i.e., 100 μl. Compounds are diluted in 50% DMSO and 10 μl are added to each well. Control wells contain an equivalent concentration of DMSO. Unless noted otherwise, reactions are initiated via the addition of 6 nM biotinylated poly(dA)-oligo(dT) template/primer to reaction mixtures containing the enzyme, substrate, and compounds of interest. Plates are incubated in a 25° C. or 37° C. H2O bath and terminated via the addition of 40 μl/reaction of 0.5 M EDTA (pH 8) per well. Reactions are terminated within the time-frame during which substrate incorporation is linear and varied depending upon the enzyme and conditions used, i.e., 30 min. for HCMV polymerase. Ten μl of streptavidin-SPA beads (20 mg/ml in PBS/10% glycerol) are added following termination of the reaction. Plates are incubated 10 min. at 37° C., then equilibrated to room temperature, and counted on a Packard Topcount. Linear regressions are performed and IC50's are calculated using computer software.
(§2) A modified version of the above HCMV polymerase assay is performed as described above, but with the following changes: Compounds are diluted in 100% DMSO until final dilution into assay buffer. In the previous assay, compounds are diluted in 50% DMSO. 4.5 mM dithiothreitol (DTT) is added to the polymerase buffer.

HSV polymerase = HSV polymerase (Human herpesvirus 1, UniProt P04293); assay: HSV polymerase assay (Table 1); type: biochemical
HSV polymerase, sequence (P04293 whole entry): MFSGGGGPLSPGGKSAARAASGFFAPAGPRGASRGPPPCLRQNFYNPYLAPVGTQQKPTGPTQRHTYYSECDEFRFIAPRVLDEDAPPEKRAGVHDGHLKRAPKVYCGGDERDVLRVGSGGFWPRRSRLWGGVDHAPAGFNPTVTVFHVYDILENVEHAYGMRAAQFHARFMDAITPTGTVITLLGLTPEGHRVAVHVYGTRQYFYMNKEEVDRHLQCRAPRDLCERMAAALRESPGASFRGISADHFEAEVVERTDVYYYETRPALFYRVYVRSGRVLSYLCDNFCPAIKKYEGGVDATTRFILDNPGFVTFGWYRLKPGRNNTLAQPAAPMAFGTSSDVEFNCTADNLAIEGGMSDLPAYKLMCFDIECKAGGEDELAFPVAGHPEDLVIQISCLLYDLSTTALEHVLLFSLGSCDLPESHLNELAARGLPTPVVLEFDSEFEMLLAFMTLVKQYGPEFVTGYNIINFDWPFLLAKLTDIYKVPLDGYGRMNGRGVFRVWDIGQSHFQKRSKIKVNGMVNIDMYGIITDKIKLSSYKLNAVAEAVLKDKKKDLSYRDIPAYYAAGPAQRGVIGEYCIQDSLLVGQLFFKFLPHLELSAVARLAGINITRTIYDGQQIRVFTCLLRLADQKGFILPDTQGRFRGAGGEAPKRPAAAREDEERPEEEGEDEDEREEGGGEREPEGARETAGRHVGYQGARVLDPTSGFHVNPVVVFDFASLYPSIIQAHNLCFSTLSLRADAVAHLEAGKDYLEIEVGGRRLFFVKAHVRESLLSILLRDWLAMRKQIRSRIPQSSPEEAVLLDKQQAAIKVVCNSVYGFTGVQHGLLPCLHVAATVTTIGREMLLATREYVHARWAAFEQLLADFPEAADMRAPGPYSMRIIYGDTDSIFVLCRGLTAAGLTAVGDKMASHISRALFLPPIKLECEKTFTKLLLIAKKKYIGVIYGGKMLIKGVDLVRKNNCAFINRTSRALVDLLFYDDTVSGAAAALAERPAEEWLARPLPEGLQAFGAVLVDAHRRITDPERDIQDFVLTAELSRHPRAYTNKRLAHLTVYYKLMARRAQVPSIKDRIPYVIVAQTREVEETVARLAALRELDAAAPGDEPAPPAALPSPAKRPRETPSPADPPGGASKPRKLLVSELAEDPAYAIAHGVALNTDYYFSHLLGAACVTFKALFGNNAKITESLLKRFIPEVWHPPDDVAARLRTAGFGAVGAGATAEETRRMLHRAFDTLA

VZV polymerase = VZV polymerase (Varicella-zoster virus, UniProt P09252); assay: VZV polymerase assay (Table 1); type: biochemical
VZV polymerase, sequence (P09252 whole entry): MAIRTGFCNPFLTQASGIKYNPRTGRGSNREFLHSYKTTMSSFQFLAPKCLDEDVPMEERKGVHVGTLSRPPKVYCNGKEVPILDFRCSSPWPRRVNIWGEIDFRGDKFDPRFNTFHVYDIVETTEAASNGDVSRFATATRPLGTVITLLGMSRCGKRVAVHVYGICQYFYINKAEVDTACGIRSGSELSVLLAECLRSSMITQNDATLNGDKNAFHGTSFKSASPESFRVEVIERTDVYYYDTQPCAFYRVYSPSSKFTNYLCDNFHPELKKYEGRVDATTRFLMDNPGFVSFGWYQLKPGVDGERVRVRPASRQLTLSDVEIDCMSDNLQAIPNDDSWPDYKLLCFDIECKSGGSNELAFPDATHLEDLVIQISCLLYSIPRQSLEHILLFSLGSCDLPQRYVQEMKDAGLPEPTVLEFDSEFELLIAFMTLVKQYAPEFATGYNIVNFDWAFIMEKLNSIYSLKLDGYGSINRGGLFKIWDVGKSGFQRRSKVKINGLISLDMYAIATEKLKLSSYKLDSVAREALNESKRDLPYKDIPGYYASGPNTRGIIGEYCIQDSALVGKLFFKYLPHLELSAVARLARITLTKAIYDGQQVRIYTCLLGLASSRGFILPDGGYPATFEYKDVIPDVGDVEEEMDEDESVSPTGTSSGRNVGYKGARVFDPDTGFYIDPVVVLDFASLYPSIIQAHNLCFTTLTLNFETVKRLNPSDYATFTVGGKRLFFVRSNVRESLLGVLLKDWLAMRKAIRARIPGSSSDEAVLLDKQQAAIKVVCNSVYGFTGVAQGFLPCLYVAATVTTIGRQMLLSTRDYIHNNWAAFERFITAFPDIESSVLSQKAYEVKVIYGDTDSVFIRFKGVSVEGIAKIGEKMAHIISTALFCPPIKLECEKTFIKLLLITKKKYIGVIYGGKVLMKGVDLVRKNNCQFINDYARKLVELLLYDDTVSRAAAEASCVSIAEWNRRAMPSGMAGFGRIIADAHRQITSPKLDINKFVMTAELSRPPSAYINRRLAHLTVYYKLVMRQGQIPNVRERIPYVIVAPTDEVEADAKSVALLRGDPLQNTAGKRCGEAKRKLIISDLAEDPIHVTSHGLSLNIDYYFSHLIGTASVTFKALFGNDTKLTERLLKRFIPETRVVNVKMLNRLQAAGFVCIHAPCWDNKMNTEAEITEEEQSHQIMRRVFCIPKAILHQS
Description: [The source words this procedure for another target and says it was used here with some conditions changed.] as §1, §2

| IC50 (HCMV polymerase) [nM] | melting point | IC50 (HSV polymerase) [nM] | IC50 (VZV polymerase) [nM] | inhibition at 20 µM (HCMV polymerase; at 20 μM, read-out: Polymerase HCMV, percent inhibition at the given concentration) [%] | Compound |
| --- | --- | --- | --- | --- | --- |
| 650 | 195 to 197 °C | – | – | – | O=C(NCc1ccc(Cl)cc1)c1cn2c3c(cc(CN4CCOCC4)cc3c1=O)OCCC2 [Example 1, N-(4-Chlorobenzyl)-10-(4-morpholinylmethyl)-8-oxo-3,4-dihydro-2H,8H-[1,4]oxazepino [2,3,4-ij]quinoline-7-carboxamide] |
| 770 | – | 740 | 520 | – | O=C(NCc1ccc(Cl)cc1)c1cn2c(=O)[nH]c3cc(CN4CCOCC4)cc(c1=O)c32 [Example 2, N-(4-Chlorobenzyl)-8-(4-morpholinylmethyl)-2,6-dioxo-1,2-dihydro-6H-imidazo[4,5,1-ij]quinoline-5-carboxamide] |
| 140 | – | < 510 | 60 | – | O=C1Cn2cc(C(=O)NCc3ccc(Cl)cc3)c(=O)c3cc(CN4CCOCC4)cc(c32)N1 [Example 3, N-(4-Chlorobenzyl)-9-(4-morpholinylmethyl)-2,7-dioxo-2,3-dihydro-1H,7H-pyrido[1,2,3-de]quinoxaline-6-carboxamide] |
| 160 | – | – | 180 | – | O=C(NCc1ccc(Cl)cc1)c1cn2c3c(cc(CN4CCOCC4)cc3c1=O)N=C(NCc1ccc(Cl)cc1)C2 [Example 4, N-(4-Chlorobenzyl)-2-[(4-chlorobenzyl)amino]-9-(4-morpholinylmethyl)-7-oxo-3H,7H-pyrido[1,2,3-de]quinoxaline-6-carboxamide] |
| 3200 | 224 to 225 °C | – | – | – | O=C(NCc1ccc(Cl)cc1)c1cn2c3c(cc(C#CCO)cc3c1=O)CC2CO (stereo not shown) [Example 5, N-(4-Chlorobenzyl)-2-(hydroxymethyl)-8-(3-hydroxy-1-propynyl)-6-oxo-1,2-dihydro-6H-pyrrolo[3,2,1-ij]quinoline-5-carboxamide] |
| 4000 | 228 °C (dec.) | – | – | – | CC1(C)Cc2cc(C#CCO)cc3c(=O)c(C(=O)NCc4ccc(Cl)cc4)cn1c23 [Example 6, N-(4-Chlorobenzyl)-8-(3-hydroxyprop-1-ynyl)-2,2-dimethyl-6-oxo-1,2-dihydro-6H-pyrrolo[3,2,1-ij]quinoline-5-carboxamide] |
| 4000 | 200 to 201 °C | – | – | – | O=C(NCc1ccc(Cl)cc1)c1cc2c3c(cc(CN4CCOCC4)cn3c1=O)CCC2 [Example 7, N-(4-Chlorobenzyl)-6-(morpholin-4-ylmethyl)-3-oxo-9,10dihydro-3H,8H-pyrido[3,2,1-ij]quinoline-2-carboxamide] |
| 430 | – | 200 | 90 | – | CC1C(=O)Nc2cc(CN3CCOCC3)cc3c(=O)c(C(=O)NCc4ccc(Cl)cc4)cn1c23 (stereo not shown) [Example 8, N-(4-Chlorobenzyl)-3-methyl-9-(4-morpholinylmethyl)-2,7-dioxo-2,3-dihydro-1H,7H-pyrido[1,2,3-de]quinoxaline-6-carboxamide hydrobromide] |
| 670 | – | 280 | 170 | – | O=C1CCn2cc(C(=O)NCc3ccc(Cl)cc3)c(=O)c3cc(CN4CCOCC4)cc(c32)N1 [Example 9, N-(4-Chlorobenzyl)-10-(4-morpholinylmethyl)-2,8-dioxo-1,2,3,4-tetrahydro-8H-[1,4]diazepino[3,2,1-ij]quinoline-7-carboxamide] |
| 310 | 235 to 240 °C | 310 | 120 | – | O=C(NCc1ccc(Cl)cc1)c1cn2c3c(cc(CN4CCOCC4)cc3c1=O)N=C(NCc1ccccc1)C2 [Example 10, 2-(Benzylamino)-N-(4-chlorobenzyl)-9-(4-morpholinylmethyl)-7-oxo-3H,7H-pyrido[1,2,3-de]quinoxaline-6-carboxamide] |
| 1160 | – | – | – | – | CN1C(=O)Cn2cc(C(=O)NCc3ccc(Cl)cc3)c(=O)c3cc(C#CCO)cc1c32 [Example 11, N-(4-Chlorobenzyl)-9-(3-hydroxy-1-propynyl)-1-methyl-2,7-dioxo-2,3-dihydro-1H,7H-pyrido[1,2,3-de]quinoxaline-6-carboxamide] |
| 1670 | – | – | – | – | O=C(NCc1ccc(Cl)cc1)c1cn2c3c(cc(CN4CCOCC4)cc3c1=O)CN(Cc1ccccc1)C2 [Example 12, 2-Benzyl-N-(4-chlorobenzyl)-9-(4-morpholinylmethyl)-7-oxo-2,3-dihydro-1H,7H-pyrido[3,2,1-ij]quinazoline-6-carboxamide] |
| – | – | – | – | 39 | O=C(NCc1ccc(Cl)cc1)c1cn2c3c(cc(CN4CCOCC4)cc3c1=O)CN(Cc1ccccc1)C2=O [Example 13, 2-Benzyl-N-(4-chlorobenzyl)-9-(4-morpholinylmethyl)-3,7-dioxo-2,3-dihydro-1H,7H-pyrido[3,2,1-ij]quinazoline-6-carboxamide] |
| 6000 | – | – | – | – | O=C(NCc1ccc(Cl)cc1)c1cn2c3c(cc(CN4CCOCC4)cc3c1=O)CN(Cc1ccccc1)C(=O)C2 [Example 14, 2-Benzyl-N-(4-chlorobenzyl)-10-(4-morpholinylmethyl)-3,8-dioxo-1,2,3,4-tetrahydro-8H-[1,4]diazepino[6,7,1-ij]quinoline-7-carboxamide] |
| 4190 | 231 to 233 °C | – | – | – | CN1COc2cc(C#CCO)cc3c(=O)c(C(=O)NCc4ccc(Cl)cc4)cn1c23 [Example 15, N-(4-Chlorobenzyl)-9-(3-hydroxyprop-1-ynyl)-3-methyl-7-oxo-2,3-dihydro-7H-[1,3,4]oxadiazino[6,5,4-ij]quinoline-6-carboxamide] |
| 7950 | 165 to 167 °C | – | – | – | CN1CCc2cc(C#CCO)cc3c(=O)c(C(=O)NCc4ccc(Cl)cc4)cn1c23 [Example 16, N-(4-Chlorobenzyl)-5-(3-hydroxyprop-1-ynyl)-1-methyl-7-oxo-2,3-dihydro-1H,7H-pyrido[3,2,1-ij]cinnoline-8-carboxamide] |
